Source: patent publication US20140155324A1, “NOVEL PEPTIDES AND USES THEREOF IN THERAPEUTIC METHODS” (TWO TO BIOTECH LTD., priority 2011, published 2014)

How the values were obtained:
Format in all cases: in vivo, C57Bl/6 male mice
[1] = Glucose tolerance test (GTT) after 2 weeks of treatment; details: mice, 0.25, 1.5 or 15 mg/Kg 3 times a week for 2 weeks; glucose 2 g/Kg i.p., 0-120 min; optimal response at 1.5 mg/Kg; FIG. 1
Protocol: Twenty 7-weeks old C57Bl/6 male mice (per experiment) were purchased from Harlan Biotech (Jerusalem, Israel). All mice were maintained in the animal facility room at the company facility. The mice were given standard laboratory chow and water ad libitum and kept in a 12-hour light/dark cycle. All animal experiments were carried out in accordance with the guidelines of the Israeli authority for animal experiments for Care and Use of Laboratory Animals and with the authority specific approval. At the end of experiment (two weeks) a glucose tolerance test (GTT) was performed. The mice were starved overnight prior to administration of the test. Glucose was injected intraperitoneally (i.p.) (2 g/Kg body weight) and blood glucose levels were measured at time-points 0 min, 15 min, 30 min, 60 min, 90 min and 120 min. Blood glucose was determined by sampling tail vein blood using a standard glucometer. Male C57131/6 mice were divided into four groups of 5 mice each. The control group (Group I) received 5% Mannitol IV (200 μL 3 times a week). Group II received a dose of APC2 (0.25 mg/Kg body weight) 3 times a week. Group III received a dose of APC2 (1.5 mg/Kg body weight) 3 times a week. Group IV received a dose of APC2 (15 mg/Kg body weight) 3 times a week. The mice were treated for 2 weeks. […]

Plasma glucagon assay = details: mice, 0.25, 1.5 or 15 mg/Kg 3 times a week for 2 weeks; FIG. 2
Protocol: (§1) Twenty 7-weeks old C57Bl/6 male mice (per experiment) were purchased from Harlan Biotech (Jerusalem, Israel). All mice were maintained in the animal facility room at the company facility. The mice were given standard laboratory chow and water ad libitum and kept in a 12-hour light/dark cycle. All animal experiments were carried out in accordance with the guidelines of the Israeli authority for animal experiments for Care and Use of Laboratory Animals and with the authority specific approval.
Mice tail vein was punctured and blood glucose was assayed using a standard glucometer.
(§2) Male C57131/6 mice were divided into four groups of 5 mice each. The control group (Group I) received 5% Mannitol IV (200 μL 3 times a week). Group II received a dose of APC2 (0.25 mg/Kg body weight) 3 times a week. Group III received a dose of APC2 (1.5 mg/Kg body weight) 3 times a week. Group IV received a dose of APC2 (15 mg/Kg body weight) 3 times a week. The mice were treated for 2 weeks.
In addition to GTT, the mice plasma glucagon levels were assayed as described in the Methods section.

insulin receptor = assay: Insulin receptor RNA level in splenocytes of treated mice; details: mice, 0.25, 1.5 or 15 mg/Kg 3 times a week for 2 weeks; HPRT control; maximal induction at 1.5 mg/Kg; FIG. 3B
Protocol: (§3) Mice were sacrificed and dissected. 15-20 mg of appropriate tissue was taken and stabilized in RNA-Save. RNA was extracted from the tissue using an RNeasy mini kit. Homogenization was performed using a 22G needle and syringe. cDNA was prepared from the RNA using EZ-first strand cDNA synthesis kit for RT-PCR. PCR of samples was performed using GoTaq Green Master Mix using appropriate primers (40 cycles, annealing temperature: 62° C.).
as §2
(§4) At the end of the experiment, the mice were sacrificed, the splenocytes were collected from the different mice groups and the RNA levels of HPRT (control), insulin receptor and GLUT4 were assayed.

GLUT-4 = GLUT-4 RNA level in splenocytes of treated mice; details: mice, 0.25, 1.5 or 15 mg/Kg 3 times a week for 2 weeks; HPRT control; maximal induction at 1.5 mg/Kg; FIG. 3C
Protocol: as §3, §2, §4

IL-1β = assay: Serum IL-1β assay (Bio-Plex); details: mice, 0.25, 1.5 or 15 mg/Kg 3 times a week for 2 weeks; optimal response at 1.5 mg/Kg; FIG. 4B
Protocol: as §1
(§5) Blood was drawn from each mouse and collected separately in a 1.5 ml vial. After 30 min to 1 hr at room temperature, the clotted blood was centrifuged at 300G for 15 minutes at 4° C. The supernatant was collected to a new 1.5 ml vial and centrifuged again at 300G for 15 minutes. The supernatant was collected to a new 1.5 ml vial and frozen at −70° C. for later analysis. When ready for analysis, the blood vials were quickly thawed in a water bath at room temperature, and then centrifuged at 13,000 G for 10 minutes at 4° C. Samples were analyzed according to the Bio-Plex Pro assay instruction manual using a flat bottom black plate.
(§6) Male CS7Bl/6 mice were divided into four groups of 5 mice each. […]
(§7) At the end of the experiment, TNFα and IL-1β were measured in the mice plasma, and the results are presented in FIGS. 4A and 4B, respectively.

TNFα = assay: Serum TNFα assay (Bio-Plex); details: mice, 0.25, 1.5 or 15 mg/Kg 3 times a week for 2 weeks; optimal response at 1.5 mg/Kg; FIG. 4A
Protocol: as §1, §5, §6, §7

Substance: APC-2: isolated polypeptide of SEQ ID NO. 1, hormone-like protein expressed in human heart and lymphocytes (MITSWFSLLPGSQEATATPPFPVVAGRKH; Homo sapiens APC2)
- glucose tolerance (blood glucose levels after i.p. glucose) [1]: improved glucose tolerance in a dose-dependent manner
- plasma glucagon levels (Plasma glucagon assay): reduced in a dose-dependent manner
- insulin receptor RNA levels in splenocytes (insulin receptor): up-regulated
- GLUT4 RNA levels in splenocytes (GLUT-4): up-regulated

Substance: APC-3: isolated polypeptide of SEQ ID NO. 5, hormone-like protein expressed in human spleen, testis, small intestine, colon and kidney (MSSFCLALEVFHPTVSSGRSRPYQIASLETPVLNYSFHHRR; Homo sapiens APC3)
- IL-1β levels (IL-1β): reduced both inflammatory cytokines levels in a dose-dependent manner
- TNFα levels (TNFα): reduced both inflammatory cytokines levels in a dose-dependent manner
